Values quoted from earlier work, collected in US11260028B2, “Nanosome formulations of aprepitant and methods and applications thereof” (ForDoz Pharma Corp., priority 2017, dated 2022).

water solubility: poor
Compound: C[C@@H](O[C@H]1OCCN(Cc2n[nH]c(=O)[nH]2)[C@H]1c1ccc(F)cc1)c1cc(C(F)(F)F)cc(C(F)(F)F)c1 [aprepitant, 5-[[(2R,3S)-2-[(1R)-1-[3,5-bis(trifluoromethyl)phenyl]ethoxy]-3-(4-fluorophenyl)-4-morpholinyl]methyl]-1,2-dihydro-3H-1,2,4-triazol-3-one]
